Results on 25 molecules are retold here after US7790896B2, “RNA-selective probes for live cell imaging of nuclear structure and function” (New York University, priority 2006, dated 2010).

System in one data set: not listed separately
Briefly: Fluorescence spectrum in TE buffer of dyes selected from live cell imaging. The class given is physicochemical. As to conditions: dye 10 μM in TE buffer. The method, then: (§1) The fluorescence spectra data in the primary screening and selected dyes titration assay study was obtained by Gemini XS plate reader. RNA solution was prepared right before the assay experiments to avoid possible degradation and contamination. In the primary screening, 1 mg/mL RNA (type VI from torula yeast) buffer solution was used. Point scans were carried out first using five Ex/Em point sets ([…], 400/500, 450/550, 500/600, 550/650 nm). Spectra scans were then carried out for the selected dyes. Excitation wavelengths were set at 350 nm, 400 nm, 450 nm, 500 nm, and 550 nm and the emission wavelengths were scanned. RNA (16S- and 23S-ribosomal from E. coli) and DNA (salmon testes) titration experiments and quantum yield/extinction coefficient determination for the three best dyes were carried out by the plate reader as well. Excitation λmax obtained from F-2500 Hitachi Fluorophotometer was used. Absorbance wavelength was determined by SpectraMax Plus^384 absorbance plate reader. […] was chosen as standard and 480 nm was used as excitation wavelength in the scanning for quantum yield determination.
As to `COc1ccc2c(ccc(C=Cc3ccc(O)c(Br)c3)[n+]2C)c1` [Dye F158], the SPECTRUM EM was 620 nm and the SPECTRUM EX turned out to be 500 nm.
In the case of `CCOc1cccc(C=Cc2ccc3cc(OC)ccc3[n+]2C)c1O` [Dye F104], the SPECTRUM EM came out at 460 nm and the SPECTRUM EX amounted to 350 nm.
`COc1ccc2c(ccc(/C=C/c3c(C)cc(C)cc3C)[n+]2C)c1` [Dye F85] returned an SPECTRUM EM of 470 nm and an SPECTRUM EX of 400 nm.
The like results for `Cc1ccc2ccccc2c1/C=C/c1cc[n+](C)c2ccccc12` [Dye D143] were, in that order, 530 nm and 400 nm.
The matching figures for `COc1ccc2c(ccc(C=Cc3ccc4c5c(cccc35)CC4)[n+]2C)c1` [Dye F118]: 590 nm and 450 nm.
The like results for `COc1ccc2c(ccc(/C=C/c3cccc(OC)c3OC(C)=O)[n+]2C)c1` [Dye F153] were, in that order, 470 nm and 350 nm.
`COc1ccc(-c2ccc(/C=C/c3cccc[n+]3C)o2)cc1Cl` [Dye B139] registered an SPECTRUM EM of 570 nm and an SPECTRUM EX of 450 nm.
The matching figures for `COc1ccc2c(ccc(/C=C/c3cccc(C(F)(F)F)c3)[n+]2C)c1` [Dye F82]: 490 nm and 400 nm.
The matching figures for `COc1ccc2c(ccc(C=Cc3ccccc3N(c3ccccc3)c3ccccc3)[n+]2C)c1` [Dye F138]: 460 nm and 350 nm.
Consider `COc1ccc2c(ccc(/C=C/c3cc4c5c(c3O)CCCN5CCC4)[n+]2C)c1` [Dye F115], for which the SPECTRUM EM is 650 nm and the SPECTRUM EX amounted to 500 nm.
`C[n+]1ccc(C=Cc2cccc(F)c2F)c2ccccc21` [Dye D84] registered an SPECTRUM EM of 460 nm and an SPECTRUM EX of 350 nm.
The molecule `COc1ccc2c(ccc(/C=C/c3ccoc3)[n+]2C)c1` [Dye F48] registered an SPECTRUM EM of 480 nm and an SPECTRUM EX of 400 nm.
In the case of `COc1ccc2c(ccc(C=Cc3ccc(C)c4ccccc34)[n+]2C)c1` [Dye F141], the SPECTRUM EM stood at 560 nm and the SPECTRUM EX came out at 450 nm.
The like results for `COc1ccc2c(ccc(/C=C/c3cc(Br)ccc3OC)[n+]2C)c1` [Dye F137] were, in that order, 540 nm and 400 nm.
Regarding `COc1ccc(/C=C/c2ccc3ccccc3[n+]2C)cc1` [Dye E63], the SPECTRUM EM stood at 480 nm and the SPECTRUM EX is 400 nm.
In the case of `COC(=O)c1cc(OC)cc(OC)c1C=Cc1ccc2cc(OC)ccc2[n+]1C` [Dye F145], the SPECTRUM EM is 540 nm and the SPECTRUM EX amounted to 400 nm.
For the molecule `COc1ccc2c(ccc(/C=C/c3ccc(OC)c(O)c3Cl)[n+]2C)c1` [Dye F155], the SPECTRUM EM turned out to be 540 nm and the SPECTRUM EX worked out at 450 nm.
Consider `COc1ccc2c(ccc(/C=C/c3ccco3)[n+]2C)c1` [Dye F45], for which the SPECTRUM EM turned out to be 490 nm and the SPECTRUM EX stood at 400 nm.
The matching figures for `COc1ccc2c(ccc(/C=C/C=C/c3ccccc3OC)[n+]2C)c1` [Dye F97]: 460 nm and 350 nm.
The like results for `COc1ccc2c(ccc(C=Cc3ccccc3Br)[n+]2C)c1` [Dye F47] were, in that order, 470 nm and 350 nm.
The matching figures for `CCCCCC(/C=C/c1ccc2cc(OC)ccc2[n+]1C)=C\c1ccccc1` [Dye F101]: 470 nm and 350 nm.
Regarding `COc1ccc(Oc2cccc(C=Cc3ccc4cc(OC)ccc4[n+]3C)c2)cc1` [Dye F83], the SPECTRUM EM came out at 460 nm and the SPECTRUM EX stood at 350 nm.
The matching figures for `COc1ccc2c(ccc(C=Cc3ccc4c(c3)OCO4)[n+]2C)c1` [Dye F43]: 560 nm and 450 nm.
Molecule `COc1ccc2c(ccc(/C=C/c3ccc(OC)c4ccccc34)[n+]2C)c1` [Dye F41] gave an SPECTRUM EM of 590 nm and an SPECTRUM EX of 450 nm.
The like results for `COc1ccc2c(ccc(/C=C/c3ccc(Br)s3)[n+]2C)c1` [Dye F77] were, in that order, 440 nm and 350 nm.

For a further data set, the system named is RNA (Type VI from torula yeast). As to the kind of experiment: In vitro solution assay (primary screening): fluorescent emission fold change upon binding to RNA. The settings on record: dye 10 μM, RNA 500 μg/mL in TE buffer. The method, then:
as §1
The screening strategy used in this study is illustrated in FIG. 2. Both in vitro RNA assays and live cell imaging methods were utilized in the primary screening of the dye library. Selective binding of the dye to RNA in solution was the primary criterion for selecting lead compounds for subsequent bioimaging studies, Herein, the library dyes' fluorescent emission intensity fold change upon binding to RNA was measured in solution. Dyes showing five-fold or higher emission changes in the presence of RNA were selected (Table 3). Note the dyes listed are identified by the building blocks I and II from Table 2. For example, A4 is the product made by reacting compound A from the list of Building block I and compound 4 from the list of Building block II.
Consider `COc1ccc2c(ccc(C=Cc3ccc(O)c(Br)c3)[n+]2C)c1` [Dye F158], for which the “Em(nm)” value amounted to 620 nm, the “Ex(nm)” value is on record as 500 nm and the “Fold (fluorescent emission fold changes to RNA)” value was 7.
